According to the supplement of paper PMC4121296:
± gives the standard deviation of the averaged measurements.

Experiments:
Settings in all cases: exposure: 5-72 hpf
[1] = system: Danio rerio embryo (fli1:egfp); assay: heart rate at 72 hpf (beats per minute); higher = faster heart rate
Description: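 fli1:egfp zebrafish embryos exposed 5-72 hpf to chemical (0.05-50 µM, 0.1% DMSO) in 384-well plates; heart rate at 72 hpf quantified from stream acquisitions by semi-automated MetaXpress journal (peak counting); only embryos in concentrations passing survival/body-length criteria analyzed.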

[2] = system: Danio rerio embryo (fli1:egfp); assay: body length at 72 hpf (µm); higher = longer body (less growth inhibition)
Description: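 Transgenic fli1:egfp zebrafish embryos (one per well, 384-well plate) exposed statically from 5 to 72 hpf at 28 °C to chemical (0.05-50 µM, 0.1% DMSO); at 72 hpf anesthetized and imaged on ImageXpress; body length of live, hatched, correctly oriented embryos measured by automated MetaXpress journal. Dead/unhatched/misoriented embryos have no value.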

[3] = system: Danio rerio embryo (fli1:egfp); assay: pericardial area at 72 hpf (image area units (not stated)); higher = larger pericardial area (edema)
Description: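 fli1:egfp zebrafish embryos exposed 5-72 hpf to chemical (0.05-50 µM, 0.1% DMSO); pericardial area at 72 hpf measured by semi-automated MetaXpress journal (increase indicates edema).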

[4] = system: Danio rerio embryo (fli1:egfp); assay: arterial (dorsal aorta) circulation score at 72 hpf (normalized DA-Max (arbitrary units)); higher = more circulation
Description: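 fli1:egfp zebrafish embryos exposed 5-72 hpf to chemical (0.05-50 µM, 0.1% DMSO); arterial circulation at 72 hpf quantified from stream acquisitions of the dorsal aorta by FFT-based analysis (DA-Max, normalized dorsal aorta signal); only concentrations passing survival/body-length criteria analyzed.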

[5] = system: Danio rerio embryo (fli1:egfp); assay: intersegmental vessel area normalized to body length at 72 hpf (ISV area / body length (normalized units)); higher = more vessel area
Description: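 fli1:egfp zebrafish embryos exposed 5-72 hpf to chemical (0.05-50 µM, 0.1% DMSO); intersegmental vessel (ISV) eGFP area quantified by MetaXpress journal at 72 hpf and normalized to body length.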

O=C(O)c1cc(Oc2ccc(C(F)(F)F)cc2Cl)ccc1[N+](=O)[O-] [Acifluorfen]
Settings | arterial, [4] | body length at 72 hpf, [2] | heart rate at 72 hpf, [1] | intersegmental vessel area normalized, [5] | pericardial area at 72 hpf, [3]
0.05 µM | 16.3 ± 4.7 | 2970 ± 130 | 168 ± 26 | 81.7 ± 14 | 14900 ± 3900
0.098 µM | 14.7 ± 5.2 | 3000 ± 110 | 169 ± 26 | 82.8 ± 22 | 17600 ± 4700
0.195 µM | 14.4 ± 5.3 | 3030 ± 110 | 166 ± 24 | 89.2 ± 14 | 16700 ± 4900
0.39 µM | 15.6 ± 5 | 3000 ± 150 | 168 ± 28 | 82.3 ± 18 | 16700 ± 6000
0.78 µM | 14.4 ± 3.5 | 2970 ± 140 | 167 ± 11 | 92.9 ± 18 | 15600 ± 4400
1.56 µM | 15.9 ± 4.6 | 3040 ± 140 | 164 ± 18 | 82.3 ± 21 | 16400 ± 4600
3.125 µM | 15.2 ± 5.1 | 3030 ± 95 | 164 ± 28 | 85.2 ± 19 | 17500 ± 4900
6.25 µM | 14.2 ± 4.7 | 3030 ± 140 | 177 ± 30 | 89.2 ± 16 | 19400 ± 6100
12.5 µM | 16.1 ± 6 | 3020 ± 110 | 175 ± 26 | 89.5 ± 15 | 15900 ± 3600
25 µM | 15.6 ± 6.2 | 2960 ± 130 | 175 ± 30 | 89.3 ± 22 | 15500 ± 4800
50 µM | 14.5 ± 6.2 | 2980 ± 78 | 180 ± 26 | 99.8 ± 9.1 | 15800 ± 5300

CCOC(=O)COc1cc(-c2nn(C)c(OC(F)F)c2Cl)c(F)cc1Cl [Pyraflufen-ethyl]
Settings | arterial, [4] | body length at 72 hpf, [2] | heart rate at 72 hpf, [1] | intersegmental vessel area normalized, [5] | pericardial area at 72 hpf, [3]
0.05 µM | 10.9 ± 5.3 | 3030 ± 120 | 171 ± 14 | 83.6 ± 15 | 15700 ± 5300
0.098 µM | 8.57 ± 3.6 | 3020 ± 110 | 174 ± 18 | 92.3 ± 16 | 15400 ± 2800
0.195 µM | 10.5 ± 4.4 | 3020 ± 100 | 174 ± 27 | 84.6 ± 16 | 15300 ± 3600
0.39 µM | 9.67 ± 4.3 | 3040 ± 120 | 167 ± 14 | 86.7 ± 15 | 17100 ± 4000
0.78 µM | 10.2 ± 5.1 | 2950 ± 300 | 169 ± 12 | 81.6 ± 19 | 16800 ± 4600
1.56 µM | 7.3 ± 3.3 | 2980 ± 140 | 169 ± 19 | 85.2 ± 15 | 20600 ± 6600
3.125 µM | 4.92 ± 2.7 | 2960 ± 77 | 160 ± 13 | 86.2 ± 17 | 20000 ± 5900
6.25 µM | 3.84 ± 1.6 | 2890 ± 140 | 163 ± 26 | 86 ± 18 | 25300 ± 11000
25 µM | 3.2 ± 0.82 | 2790 ± 120 | 148 ± 31 | 96.9 ± 12 | 25400 ± 7700

CN1CSC(=S)N(C)C1 [Dazomet]
0.05 µM
Settings | arterial | body length at 72 hpf | heart rate at 72 hpf | intersegmental vessel area normalized | pericardial area at 72 hpf
[1] | – | – | 168 ± 32 | – | –
[2] | – | 2860 ± 98 | – | – | –
[3] | – | – | – | – | 15600 ± 5300
[4] | 14.4 ± 6.5 | – | – | – | –
[5] | – | – | – | 72.7 ± 20 | –

CC1(C)C(C(=O)OC(C#N)c2cccc(Oc3ccccc3)c2)C1(C)C (configuration not stated) [Fenpropathrin]
Settings | arterial, [4] | body length at 72 hpf, [2] | heart rate at 72 hpf, [1] | intersegmental vessel area normalized, [5] | pericardial area at 72 hpf, [3]
0.05 µM | 18.5 ± 5.8 | 2970 ± 130 | 183 ± 26 | 83.1 ± 17 | 14600 ± 4300
0.098 µM | 13.8 ± 5.9 | 2950 ± 130 | 197 ± 21 | 80.8 ± 28 | 13400 ± 3700
0.195 µM | 11.2 ± 3.9 | 2970 ± 150 | 191 ± 14 | 73.2 ± 22 | 14500 ± 3700
0.39 µM | 10.7 ± 2.7 | 2940 ± 180 | 192 ± 18 | 83.8 ± 27 | 14400 ± 3100
0.78 µM | 12.6 ± 4.4 | 2780 ± 200 | 192 ± 20 | 85.4 ± 25 | 13200 ± 2800
1.56 µM | 20.9 ± 45 | 2720 ± 180 | 188 ± 23 | 90.6 ± 20 | 13400 ± 2700
3.125 µM | 21.2 ± 32 | 2710 ± 170 | 186 ± 30 | 82.2 ± 26 | 13600 ± 3300
6.25 µM | – | 2640 ± 140 | – | – | –
12.5 µM | – | 2590 ± 170 | – | – | –

CO/N=C(/C(=O)OC)c1ccccc1CO/N=C(\C)c1cccc(C(F)(F)F)c1 [Trifloxystrobin]
Settings | arterial, [4] | body length at 72 hpf, [2] | heart rate at 72 hpf, [1] | intersegmental vessel area normalized, [5] | pericardial area at 72 hpf, [3]
0.05 µM | 12.1 ± 5 | 2950 ± 110 | 172 ± 15 | 71 ± 20 | 12800 ± 4600
0.098 µM | 11.6 ± 3.9 | 3060 ± 110 | 171 ± 15 | 73.5 ± 24 | 10600 ± 3000
0.195 µM | 15.7 ± 3.6 | 3030 ± 120 | 167 ± 21 | 70.2 ± 23 | 12300 ± 3200
0.39 µM | 15 ± 5.5 | 2970 ± 130 | 173 ± 33 | 67.6 ± 21 | 12200 ± 3800
0.78 µM | 14.9 ± 4.8 | 3000 ± 110 | 166 ± 12 | 68.9 ± 20 | 13900 ± 4900

Cc1nn(-c2cc(NS(C)(=O)=O)c(Cl)cc2Cl)c(=O)n1C(F)F [Sulfentrazone]
Settings | arterial, [4] | body length at 72 hpf, [2] | heart rate at 72 hpf, [1] | intersegmental vessel area normalized, [5] | pericardial area at 72 hpf, [3]
0.05 µM | 11.4 ± 5 | 3000 ± 140 | 156 ± 15 | 77.2 ± 24 | 17900 ± 6200
0.098 µM | 11.7 ± 3.6 | 2990 ± 190 | 158 ± 12 | 76.8 ± 23 | 16100 ± 3600
0.195 µM | 12.6 ± 4.1 | 2990 ± 150 | 158 ± 14 | 71.2 ± 22 | 16300 ± 3600
0.39 µM | 9.83 ± 4.8 | 2970 ± 120 | 157 ± 12 | 72.4 ± 22 | 15600 ± 3200
0.78 µM | 11.3 ± 4.1 | 2920 ± 230 | 161 ± 11 | 78.9 ± 21 | 16100 ± 4200
1.56 µM | 8.91 ± 3.8 | 2930 ± 140 | 163 ± 12 | 72.4 ± 22 | 18600 ± 4900
3.125 µM | 8.71 ± 3.6 | 2970 ± 150 | 162 ± 13 | 71.4 ± 20 | 17200 ± 4300
6.25 µM | 8.86 ± 12 | 3030 ± 100 | 167 ± 24 | 69.7 ± 22 | 20400 ± 5400
12.5 µM | 7.1 ± 2.4 | 3020 ± 93 | 170 ± 21 | 74.8 ± 20 | 18700 ± 4200
25 µM | 11.1 ± 17 | 2970 ± 110 | 169 ± 16 | 71.2 ± 17 | 21700 ± 5200
50 µM | 5.34 ± 1.9 | 2950 ± 180 | 173 ± 30 | 71.2 ± 24 | 21200 ± 5300
